Patent publication US20240228488A1 (TAKEDA PHARMACEUTICAL COMPANY LIMITED, priority 2021, published 2024)
pEC50: −log10 of the molar value.

Target: human activated kallikrein enzyme (Homo sapiens, UniProt P03952)
Experiment: Plasma kallikrein inhibition, fluorogenic PFR-AMC substrate, 500 pM activated kallikrein format
Format: biochemical
Conditions: 500 pM activated kallikrein, 300 uM PFR-AMC, 30 min preincubation, 10 min reaction; read-out: Primary Dose Response Assay: Average EC50
Procedure: Compounds were evaluated for inhibition of the human activated kallikrein enzyme in two formats of an assay employing a fluorogenic peptide substrate. In one assay format, the concentrations of reagents were as follows: 20 mM Tris pH 7.5, 1 mM EDTA, 150 mM sodium chloride, 0.1% PEG-400, 0.1% Triton X-100, 500 pM activated kallikrein enzyme, 300 uM Pro-Phe-Arg-7-amido-4-methylcoumarin (PFR-AMC) substrate. Prior to reaction initiation with substrate, enzyme and inhibitors were preincubated for 30 min at room temperature. After initiation with substrate, reactions were incubated for 10 min at room temperature and fluorescence emission at 460 nm from 380 nm excitation measured with a microplate reader. In another assay format, the concentrations of reagents were as follows: 20 mM Tris pH 7.5, 1 mM EDTA, 150 mM sodium chloride, 0.1% PEG-400, 0.1% Triton X-100, 5 pM activated kallikrein enzyme, 300 uM PFR-AMC substrate. Prior to reaction initiation with substrate, enzyme and inhibitors were preincubated for 30 min at room temperature. After initiation with substrate, reactions were incubated for 18 hr at room temperature and fluorescence emission at 460 nm from 380 nm excitation measured with a microplate reader.
Table 49 provides the results of the assay in the format with 500 pM activated kallikrein assay. For the compounds listed in Table 49, the EC50 values are reported according to the following ranges: A≤1.0 nM; 1.0 nM<B≤10 nM; 10 nM<C≤100 nM; 100 nM<D≤1000 nM; 1000 nM<E≤6000 nM; 6000 nM<F.
Table 51 provides comparative plasma kallikrein inhibition potency in the assay format with 500 pM activated kallikrein assay (described in detail in a preceding example). For the compounds listed in Table 51, the EC50 values are reported according to the following ranges: A≤1.0 nM; 1.0 nM<B≤10 nM; 10 nM<C≤100 nM; 100 nM<D≤1000 nM; 1000 nM<E≤6000 nM; 6000 nM<F.

human activated kallikrein enzyme, sequence (P03952 391-638 limits assumed): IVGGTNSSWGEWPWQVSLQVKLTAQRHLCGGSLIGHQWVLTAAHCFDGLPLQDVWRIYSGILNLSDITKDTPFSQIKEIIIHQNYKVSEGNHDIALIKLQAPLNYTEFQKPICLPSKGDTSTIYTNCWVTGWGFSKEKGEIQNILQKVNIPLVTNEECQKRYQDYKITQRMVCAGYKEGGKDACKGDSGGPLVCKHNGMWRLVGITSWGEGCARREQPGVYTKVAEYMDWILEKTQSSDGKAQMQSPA
human activated kallikrein enzyme, sequence (P03952 20-390 partner limits assumed): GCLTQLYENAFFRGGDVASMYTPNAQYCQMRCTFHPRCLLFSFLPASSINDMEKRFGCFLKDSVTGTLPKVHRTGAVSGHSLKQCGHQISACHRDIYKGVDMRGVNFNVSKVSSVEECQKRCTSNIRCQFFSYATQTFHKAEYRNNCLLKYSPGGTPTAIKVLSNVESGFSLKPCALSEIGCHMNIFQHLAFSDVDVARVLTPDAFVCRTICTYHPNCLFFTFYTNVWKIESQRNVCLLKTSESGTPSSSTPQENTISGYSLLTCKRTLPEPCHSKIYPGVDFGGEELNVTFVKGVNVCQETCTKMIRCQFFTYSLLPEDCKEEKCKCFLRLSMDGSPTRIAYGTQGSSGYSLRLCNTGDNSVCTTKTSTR

O=C(Nc1cncnc1NCc1cn2cc(C3CC3)ccc2n1)[C@H]1C[C@@H]1c1cccc(Cl)c1 (racemic) [Example 78, rac-(1S*,2S*)-2-(3-chlorophenyl)-N-(4-(((6-cyclopropylimidazo[1,2-a]pyridin-2-yl)methyl)amino)pyrimidin-5-yl)cyclopropane-1-carboxamide]
pEC50: 6.00 to 7.00

O=C(Nc1cc(NCc2cn3cc(C4CC4)ccc3n2)c(F)cn1)[C@H]1C[C@@H]1c1cccc(Cl)c1 (racemic) [Example 86, rac-(1S*,2S*)-2-(3-chlorophenyl)-N-(4-(((6-cyclopropylimidazo[1,2-a]pyridin-2-yl)methyl)amino)-5-fluoropyridin-2-yl)cyclopropane-1-carboxamide]
pEC50: 6.00 to 7.00

O=C(Nc1cc(NCc2cn3cc(C4CC4)cc(CO)c3n2)ccn1)[C@H]1C[C@@H]1c1cccc(Cl)c1 (racemic) [Example 98, rac-(1S*,2S*)-2-(3-chlorophenyl)-N-(4-(((6-cyclopropyl-8-(hydroxymethyl)imidazo[1,2-a]pyridin-2-yl)methyl)amino)pyridin-2-yl)cyclopropane-1-carboxamide]
pEC50: > 9.00

N#Cc1ccc(Cl)cc1[C@@H]1C[C@H]1C(=O)Nc1cc(NCc2cn3cc(C4CC4)ccc3n2)cnn1 (racemic) [Example 102, rac-(1S*,2S*)-2-(5-chloro-2-cyanophenyl)-N-(5-(((6-cyclopropylimidazo[1,2-a]pyridin-2-yl)methyl)amino)pyridazin-3-yl)cyclopropane-1-carboxamide]
pEC50: 8.00 to 9.00

O=C(Nc1cc(OCc2cn3cc(C4CC4)ccc3n2)cnn1)[C@H]1C[C@@H]1c1cccc(Cl)c1 (racemic) [Example 103, rac-(1S*,2S*)-2-(3-chlorophenyl)-N-(5-((6-cyclopropylimidazo[1,2-a]pyridin-2-yl)methoxy)pyridazin-3-yl)cyclopropane-1-carboxamide]
pEC50: 7.00 to 8.00

O=C(Nc1cc(OCc2cn3cc(C4CC4)ccc3n2)ncn1)[C@H]1C[C@@H]1c1cccc(Cl)c1 (racemic) [Example 104, rac-(1S*,2S*)-2-(3-chlorophenyl)-N-(6-((6-cyclopropylimidazo[1,2-a]pyridin-2-yl)methoxy)pyrimidin-4-yl)cyclopropane-1-carboxamide]
pEC50: 6.00 to 7.00

O=C(Nc1cc(NCc2cn3cc(C4CC4)ccc3n2)nc(N2CCCC2)n1)[C@@H]1C[C@H]1c1cccc(Cl)c1 (racemic) [Example 105, rac-(1S*,2S*)-2-(3-chlorophenyl)-N-(6-(((6-cyclopropylimidazo[1,2-a]pyridin-2-yl)methyl)amino)-2-(pyrrolidin-1-yl)pyrimidin-4-yl)cyclopropane-1-carboxamide]
pEC50: 6.00 to 7.00

CSc1nc(NCc2cn3cc(C4CC4)ccc3n2)cc(NC(=O)[C@@H]2C[C@H]2c2cccc(Cl)c2)n1 (racemic) [Example 106, rac-(1S*,2S*)-2-(3-chlorophenyl)-N-(6-(((6-cyclopropylimidazo[1,2-a]pyridin-2-yl)methyl)amino)-2-(methylthio)pyrimidin-4-yl)cyclopropane-1-carboxamide]
pEC50: 6.00 to 7.00

COc1nc(NCc2cn3cc(C4CC4)ccc3n2)cc(NC(=O)[C@@H]2C[C@H]2c2cccc(Cl)c2)n1 (racemic) [Example 107, rac-(1S*,2S*)-2-(3-chlorophenyl)-N-(6-(((6-cyclopropylimidazo[1,2-a]pyridin-2-yl)methyl)amino)-2-methoxypyrimidin-4-yl)cyclopropane-1-carboxamide]
pEC50: 7.00 to 8.00

CS(=O)(=O)c1nc(NCc2cn3cc(C4CC4)ccc3n2)cc(NC(=O)[C@H]2C[C@@H]2c2cccc(Cl)c2)n1 (racemic) [Example 110, rac-(1S*,2S*)-2-(3-chlorophenyl)-N-(6-(((6-cyclopropylimidazo[1,2-a]pyridin-2-yl)methyl)amino)-2-(methylsulfonyl)pyrimidin-4-yl)cyclopropane-1-carboxamide]
pEC50: 7.00 to 8.00

CCOC(=O)c1nc(NCc2cn3cc(C4CC4)ccc3n2)cc(NC(=O)[C@H]2C[C@@H]2c2cccc(Cl)c2)n1 (racemic) [Example 111, rac-ethyl 4-((1S*,2S*)-2-(3-chlorophenyl)cyclopropane-1-carboxamido)-6-(((6-cyclopropylimidazo[1,2-a]pyridin-2-yl)methyl)amino)pyrimidine-2-carboxylate]
pEC50: 8.00 to 9.00

O=C(O)c1nc(NCc2cn3cc(C4CC4)ccc3n2)cc(NC(=O)[C@H]2C[C@@H]2c2cccc(Cl)c2)n1 (racemic) [Example 112, rac-4-((1S*,2S*)-2-(3-chlorophenyl)cyclopropane-1-carboxamido)-6-(((6-cyclopropylimidazo[1,2-a]pyridin-2-yl)methyl)amino)pyrimidine-2-carboxylic acid]
pEC50: 8.00 to 9.00

O=C(Nc1cc(NCc2cn3cc(C4CC4)ccc3n2)ccn1)[C@@H]1C[C@H]1c1cccc(Cl)c1 (racemic) [Example 115, rac-(1S*,2S*)-2-(3-chlorophenyl)-N-(4-(((6-cyclopropylimidazo[1,2-a]pyridin-2-yl)methyl)amino)pyridin-2-yl)cyclopropane-1-carboxamide]
pEC50: 8.00 to 9.00

N#Cc1cc(C2CC2)cn2cc(CNc3ccnc(NC(=O)[C@@H]4C[C@H]4c4cccc(Cl)c4)c3)nc12 (racemic) [Example 119, rac-(1S*,2S*)-2-(3-chlorophenyl)-N-(4-(((8-cyano-6-cyclopropylimidazo[1,2-a]pyridin-2-yl)methyl)amino)pyridin-2-yl)cyclopropane-1-carboxamide]
pEC50: 8.00 to 9.00

COc1cc([C@H]2C[C@@H]2C(=O)Nc2cc(NCc3cn4cc(C5CC5)ccc4n3)ncn2)cc(N)n1 (racemic) [Example 277, rac-(1S*,2S*)-2-(2-amino-6-methoxypyridin-4-yl)-N-(6-(((6-cyclopropylimidazo[1,2-a]pyridin-2-yl)methyl)amino)pyrimidin-4-yl)cyclopropane-1-carboxamide]
pEC50: 6.00 to 7.00

Nc1ccc([C@H]2C[C@@H]2C(=O)Nc2cc(NCc3cn4cc(C5CC5)ccc4n3)ncn2)cc1Cl (racemic) [Example 278, rac-(1S*,2S*)-2-(4-amino-3-chlorophenyl)-N-(6-(((6-cyclopropylimidazo[1,2-a]pyridin-2-yl)methyl)amino)pyrimidin-4-yl)cyclopropane-1-carboxamide]
pEC50: 6.00 to 7.00

Nc1ccc(Cl)cc1[C@H]1C[C@@H]1C(=O)Nc1cc(NCc2cn3cc(C4CC4)ccc3n2)ncn1 (racemic) [Example 279, rac-(1S*,2S*)-2-(2-amino-5-chlorophenyl)-N-(6-(((6-cyclopropylimidazo[1,2-a]pyridin-2-yl)methyl)amino)pyrimidin-4-yl)cyclopropane-1-carboxamide]
pEC50: 6.00 to 7.00

Nc1c(Cl)cccc1[C@H]1C[C@@H]1C(=O)Nc1cc(NCc2cn3cc(C4CC4)ccc3n2)ncn1 (racemic) [Example 280, rac-(1S*,2S*)-2-(2-amino-3-chlorophenyl)-N-(6-(((6-cyclopropylimidazo[1,2-a]pyridin-2-yl)methyl)amino)pyrimidin-4-yl)cyclopropane-1-carboxamide]
pEC50: < 5.22

COc1cc([C@H]2C[C@@H]2C(=O)Nc2cc(NCc3cn4cc(C5CC5)ccc4n3)ccn2)cc(N)n1 (racemic) [Example 286, rac-(1S*,2S*)-2-(2-amino-6-methoxypyridin-4-yl)-N-(4-(((6-cyclopropylimidazo[1,2-a]pyridin-2-yl)methyl)amino)pyridin-2-yl)cyclopropane-1-carboxamide]
pEC50: 7.00 to 8.00

COCCOc1ccc(Cl)cc1[C@H]1C[C@@H]1C(=O)Nc1cc(NCc2cn3cc(C4CC4)ccc3n2)ncn1 (racemic) [Example 310, rac-(1S*,2S*)-2-(5-chloro-2-(2-methoxyethoxy)phenyl)-N-(6-(((6-cyclopropylimidazo[1,2-a]pyridin-2-yl)methyl)amino)pyrimidin-4-yl)cyclopropane-1-carboxamide]
pEC50: 6.00 to 7.00

O=C(Nc1cc(NCc2cn3cc(C4CC4)ccc3n2)ncn1)[C@H]1C[C@@H]1c1cc(Cl)ccc1OC(F)F (racemic) [Example 311, rac-(1S*,2S*)-2-(5-chloro-2-(difluoromethoxy)phenyl)-N-(6-(((6-cyclopropylimidazo[1,2-a]pyridin-2-yl)methyl)amino)pyrimidin-4-yl)cyclopropane-1-carboxamide]
pEC50: 7.00 to 8.00

CCOC(=O)CCOc1ccc(Cl)cc1[C@H]1C[C@@H]1C(=O)Nc1cc(NCc2cn3cc(C4CC4)ccc3n2)ncn1 (racemic) [Example 312, rac-ethyl 3-(4-chloro-2-((1S*,2S*)-2-((6-(((6-cyclopropylimidazo[1,2-a]pyridin-2-yl)methyl)amino)pyrimidin-4-yl)carbamoyl)cyclopropyl)phenoxy)propanoate]
pEC50: 7.00 to 8.00

O=C(Nc1cc(NCc2cn3cc(C4CC4)ccc3n2)ncn1)[C@H]1C[C@@H]1c1cc(Cl)ccc1O (racemic) [Example 313, rac-(1S*,2S*)-2-(5-chloro-2-hydroxyphenyl)-N-(6-(((6-cyclopropylimidazo[1,2-a]pyridin-2-yl)methyl)amino)pyrimidin-4-yl)cyclopropane-1-carboxamide]
pEC50: 8.00 to 9.00
